Laboratory results reported in ChEMBL document CHEMBL1143120, “Characterization of the two major CYP450 metabolites of ozonide (1,2,4-trioxolane) OZ277” (Bioorg Med Chem Lett, 2008).
In brackets after ≈: the same amount, converted by molar mass.

How the values were obtained:
[1] = Distribution coefficient, log D of the compound; format: physicochemical; conditions: octanol/water
Plasmodium falciparum = experiment: Antimalarial activity against Plasmodium falciparum K1; format: functional, organism-based

SMILES: CC(C)(N)CNC(=O)C[C@H]1CC[C@]2(CC1)OO[C@]1(O2)C2CC3CC1C[C@](O)(C3)C2
- logD [1]: 1.8
- IC50 (Plasmodium falciparum): > 0.1 µg/mL

SMILES: CC(C)(N)CNC(=O)C[C@H]1CC[C@]2(CC1)OO[C@]1(O2)C2CC3CC1C[C@@](O)(C3)C2
- logD [1]: 1.8
- IC50 (Plasmodium falciparum): > 0.1 µg/mL

SMILES: CC(C)(N)CNC(=O)C[C@H]1CC[C@]2(CC1)OO[C@]1(O2)C2CC3CC(C2)CC1C3 [OZ277]
- logD [1]: 3.2
- IC50 (Plasmodium falciparum): 0.001 µg/mL (≈ 0.00255 µM)
